From ChEMBL document CHEMBL1250548, “Synthesis and anti-HIV-1 evaluation of phosphonates which mimic the 5'-monophosphate of 4'-branched 2',3'-didehydro-2',3'-dideoxy nucleosides” (Bioorg Med Chem, 2010)
pIC50: −log10 of the molar value.

Key:
[1] = tested on: Human immunodeficiency virus 1; assay: Antiviral activity against HIV1 infected in human MT4 cells assessed as protection against virus-induced cytopathic effect; assay type: functional, organism-based; conditions: Human immunodeficiency virus 1, MT4
[2] = Cytotoxicity against human MT4 cells assessed as reduction of cell viability; assay type: cell-based

pIC50 [1]	SMILES	CC50 [2] [µM]
5.82	Nc1ncnc2c1ncn2[C@H]1C=C[C@@H](OCP(=O)(O)O)O1	> 600
5.77	C#C[C@@]1(OCP(=O)(O)O)C=C[C@H](n2cnc3c(N)ncnc32)O1	> 100

Second part, the molecule before the results:

SMILES	pIC50 [1]	CC50 [2] [µM]
C#C[C@@]1(OCP(=O)(O)O)C=C[C@H](n2cc(C)c(=O)[nH]c2=O)O1	< 4.00	> 100
Cc1cn([C@H]2C=C[C@@H](CO)O2)c(=O)[nH]c1=O [STAVUDINE]	5.92	> 600
Cc1cn([C@H]2C=C[C@@H](OCP(=O)(O)O)O2)c(=O)[nH]c1=O	4.92	> 600
